According to ChEMBL document CHEMBL4419169, “Novel Ferroportin Inhibitors” (2018):

What was measured:
Format in all cases: cell-based
Ferroportin [1] = target: T1, Ferroportin (Homo sapiens, UniProt Q9NP59); experiment: Inhibition of GFP-tagged human ferroportin expressed in HEK293 #354 cells assessed as induction of ferroportin internalization and degradation incubated overnight by FACS assay; details: read-out: EC50 (the source's name)
T1 sequence (Q9NP59 whole entry): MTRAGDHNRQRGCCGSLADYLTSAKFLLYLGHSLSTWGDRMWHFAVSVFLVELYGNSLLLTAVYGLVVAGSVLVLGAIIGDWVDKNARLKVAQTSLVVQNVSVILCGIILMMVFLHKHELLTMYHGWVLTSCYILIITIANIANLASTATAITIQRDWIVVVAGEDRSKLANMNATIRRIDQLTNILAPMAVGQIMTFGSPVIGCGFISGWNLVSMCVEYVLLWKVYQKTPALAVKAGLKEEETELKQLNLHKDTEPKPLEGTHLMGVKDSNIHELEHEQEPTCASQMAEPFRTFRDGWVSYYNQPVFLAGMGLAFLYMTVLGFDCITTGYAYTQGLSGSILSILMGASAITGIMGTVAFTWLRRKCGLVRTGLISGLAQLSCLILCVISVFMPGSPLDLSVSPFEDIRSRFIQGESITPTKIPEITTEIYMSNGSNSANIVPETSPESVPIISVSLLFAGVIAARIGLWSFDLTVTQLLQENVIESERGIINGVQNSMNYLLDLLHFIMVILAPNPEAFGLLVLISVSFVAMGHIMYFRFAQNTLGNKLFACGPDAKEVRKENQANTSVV

Ferroportin [2] = target: T2, Ferroportin (Mus musculus, UniProt Q9JHI9); experiment: Inhibition of ferroportin in mouse J774 cells assessed as reduction in binding of hepcidin to ferroportin pre-incubated for 15 mins before TMR-hepcidin addition and further incubated for 2 hrs by fluorescence based hepcidin internalization assay
T2 sequence (Q9JHI9 whole entry): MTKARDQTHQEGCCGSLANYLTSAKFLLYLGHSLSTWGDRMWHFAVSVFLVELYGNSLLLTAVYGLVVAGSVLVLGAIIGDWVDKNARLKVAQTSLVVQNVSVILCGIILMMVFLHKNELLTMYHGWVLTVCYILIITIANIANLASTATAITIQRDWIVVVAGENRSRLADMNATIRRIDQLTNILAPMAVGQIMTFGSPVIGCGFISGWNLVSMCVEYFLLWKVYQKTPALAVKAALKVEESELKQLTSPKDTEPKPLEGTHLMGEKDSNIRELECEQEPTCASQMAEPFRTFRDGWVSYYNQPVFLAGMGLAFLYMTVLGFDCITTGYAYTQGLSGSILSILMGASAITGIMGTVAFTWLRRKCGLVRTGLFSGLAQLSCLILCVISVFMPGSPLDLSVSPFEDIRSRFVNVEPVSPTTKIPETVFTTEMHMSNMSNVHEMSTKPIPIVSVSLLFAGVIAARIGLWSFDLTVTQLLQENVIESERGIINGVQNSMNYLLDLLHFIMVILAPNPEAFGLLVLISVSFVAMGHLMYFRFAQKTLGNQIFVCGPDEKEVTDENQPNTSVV

Ferroportin [3] = target: T1, Ferroportin; experiment: Inhibition of GFP-tagged human ferroportin expressed in HEK293 #354 cells assessed as reduction in Fpn-mediated iron efflux incubated overnight by iron regulatory element -driven beta-lactamase reporter gene assay

O=C(NCc1ncccc1F)c1cn(CCNCCc2nc3ccccc3[nH]2)nn1 gave a DC50 (Ferroportin [1]) of 69 nM, an IC50 (Ferroportin [2]) of 11 nM and an EC50 (Ferroportin [3]) of 170 nM.
